Laboratory results: patent publication EP0569096A1, “Depot preparation” (Akzo Nobel N.V., priority 1992, dated 1993)
Counter-ions that a name gives are not always drawn. One block for each molecule: values may come before it.

What was measured:
physchem = conditions: water
[1] = water solubility of the salts; conditions: general statement in the disclosure of the invention
[2] = stability of the crystalline form compared with the amorphous solid; assay type: physicochemical; conditions: crystals formed after storage for two weeks at 50° C
Procedure: (§1) The pamoate salt of EXAMPLE I was stored for two weeks at 50° C, and crystals spontaneously formed. […] Furthermore they were easier to segregate for micronization, and easier to form a suspension with.

[3] = solubility of the crystalline form compared with the amorphous solid; assay type: physicochemical; conditions: crystals formed after storage for two weeks at 50° C
Procedure: as §1

SMILES: CN1C[C@H]2c3ccccc3Oc3ccc(Cl)cc3[C@@H]2C1 (relative stereo) [fumarate]
solubility (physchem): 1000 µg/mL

SMILES: CN1C[C@H]2c3ccccc3Oc3ccc(Cl)cc3[C@@H]2C1 (relative stereo) [pamoate salt]
solubility (in words) [1]: very insoluble

stability relative to the amorphous yellow solid [2]: more stable
solubility relative to the amorphous yellow solid [3]: less soluble
SMILES: CN1C[C@@H]2c3ccccc3Oc3ccc(Cl)cc3[C@H]2C1.O=C(O)c1cc2ccccc2c(Cc2c(O)c(C(=O)O)cc3ccccc23)c1O [crystals]

solubility (in words) [1]: very insoluble
SMILES: CN1CC2c3ccccc3Oc3ccc(Cl)cc3C2C1.CN1CC2c3ccccc3Oc3ccc(Cl)cc3C2C1.O=C(O)c1cc2ccccc2c(Cc2c(O)c(C(=O)O)cc3ccccc23)c1O [hemipamoate]
